What was measured:
[1] = system: barnyardgrass; assay: Test C preemergence; assay type: in vivo, Echinochloa crusgalli; conditions: 0 to 100 scale (0 no effect, 100 complete control)
Outline: (§1)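 Greenhouse herbicide screen, 10-day duration. Test chemicals in solvent/surfactant blend were sprayed onto soil at sowing (pre) or onto 2–10 cm seedlings at one to two leaves (post); injury scored visually against controls, 0 no effect to 100 complete control.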

[2] = system: blackgrass; assay: Test C preemergence; assay type: in vivo, Alopecurus myosuroides; conditions: 0 to 100 scale (0 no effect, 100 complete control)
Outline: as §1

[3] = system: corn; assay: Test C preemergence; assay type: in vivo, Zea mays; conditions: 0 to 100 scale (0 no effect, 100 complete control)
Outline: as §1

[4] = system: green foxtail; assay: Test C preemergence; assay type: in vivo, Setaria viridis; conditions: 0 to 100 scale (0 no effect, 100 complete control)
Outline: as §1

[5] = system: kochia; assay: Test C preemergence; assay type: in vivo, Bassia scoparia; conditions: 0 to 100 scale (0 no effect, 100 complete control)
Outline: as §1

[6] = system: oat, wild; assay: Test C preemergence; assay type: in vivo, Avena fatua; conditions: 0 to 100 scale (0 no effect, 100 complete control)
Outline: as §1

[7] = system: pigweed, palmer; assay: Test C preemergence; assay type: in vivo, Amaranthus palmeri; conditions: 0 to 100 scale (0 no effect, 100 complete control)
Outline: as §1

[8] = system: ragweed; assay: Test C preemergence; assay type: in vivo, Ambrosia artemisiifolia; conditions: 0 to 100 scale (0 no effect, 100 complete control)
Outline: as §1

[9] = system: ryegrass, Italian; assay: Test C preemergence; assay type: in vivo, Lolium multiflorum; conditions: 0 to 100 scale (0 no effect, 100 complete control)
Outline: as §1

[10] = system: soybean; assay: Test C preemergence; assay type: in vivo, Glycine max; conditions: 0 to 100 scale (0 no effect, 100 complete control)
Outline: as §1

[11] = system: wheat; assay: Test C preemergence; assay type: in vivo, Triticum aestivum; conditions: 0 to 100 scale (0 no effect, 100 complete control)
Outline: as §1

[12] = system: barnyardgrass; assay: Test C postemergence; assay type: in vivo, Echinochloa crusgalli; conditions: 10 days
Outline: as §1

[13] = system: blackgrass; assay: Test C postemergence; assay type: in vivo, Alopecurus myosuroides; conditions: 10 days
Outline: as §1

[14] = system: corn; assay: Test C postemergence; assay type: in vivo, Zea mays; conditions: 10 days
Outline: as §1

[15] = system: green foxtail; assay: Test C postemergence; assay type: in vivo, Setaria viridis; conditions: 10 days
Outline: as §1

[16] = system: kochia; assay: Test C postemergence; assay type: in vivo, Bassia scoparia; conditions: 10 days
Outline: as §1

[17] = system: oat, wild; assay: Test C postemergence; assay type: in vivo, Avena fatua; conditions: 10 days
Outline: as §1

[18] = system: pigweed, palmer; assay: Test C postemergence; assay type: in vivo, Amaranthus palmeri; conditions: 10 days
Outline: as §1

[19] = system: ragweed; assay: Test C postemergence; assay type: in vivo, Ambrosia artemisiifolia; conditions: 10 days
Outline: as §1

[20] = system: ryegrass, Italian; assay: Test C postemergence; assay type: in vivo, Lolium multiflorum; conditions: 10 days
Outline: as §1

[21] = system: soybean; assay: Test C postemergence; assay type: in vivo, Glycine max; conditions: 10 days
Outline: as §1

[22] = system: wheat; assay: Test C postemergence; assay type: in vivo, Triticum aestivum; conditions: 10 days
Outline: as §1

[23] = system: galium; assay: Test C postemergence; assay type: in vivo, Galium aparine; conditions: 10 days
Outline: as §1

[24] = system: horseweed; assay: Test C postemergence; assay type: in vivo, Erigeron canadensis; conditions: 10 days
Outline: as §1

[25] = system: barnyardgrass; assay: Test D flooded paddy test; assay type: in vivo, Echinochloa crus-galli; conditions: 250 g ai/ha, applied to paddy water, visual rating after 13 to 14 days, scale 0 to 100 (0 no effect, 100 complete control)
Outline: (§2)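 Plants grown to the 2-leaf stage; pots flooded to 3 cm above soil at treatment and held at that depth throughout. Test compounds applied directly to the paddy water. After 13 to 14 days in a greenhouse, response was rated visually versus controls on a 0 (no effect) to 100 (complete control) scale.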

[26] = system: ducksalad; assay: Test D flooded paddy test; assay type: in vivo, Heteranthera limosa; conditions: 250 g ai/ha, applied to paddy water, visual rating after 13 to 14 days, scale 0 to 100 (0 no effect, 100 complete control)
Outline: as §2

[27] = system: rice; assay: Test D flooded paddy test; assay type: in vivo, Oryza sativa; conditions: 250 g ai/ha, applied to paddy water, visual rating after 13 to 14 days, scale 0 to 100 (0 no effect, 100 complete control)
Outline: as §2

[28] = system: sedge, umbrella; assay: Test D flooded paddy test; assay type: in vivo, Cyperus difformis; conditions: 250 g ai/ha, applied to paddy water, visual rating after 13 to 14 days, scale 0 to 100 (0 no effect, 100 complete control)
Outline: as §2

[29] = Preemergence, 500 g ai/ha, visual rating after 10 days
[30] = Test C, preemergence, 125 g ai/ha
[31] = 125 g ai/ha, postemergence, 0 to 100 scale, 0 no effect, 100 complete control
[32] = Postemergence, 500 g ai/ha, visual 0 to 100 scale (0 no effect, 100 complete control)

COc1ccc(-n2cncn2)cc1C(=O)N1C[C@H](C)Oc2c(Cl)cccc21 [Compound 241]
Plant response rating, Barnyardgrass [1, 29]: 100
Barnyardgrass plant response rating [1, 30]: 90
Plant response rating, Blackgrass [2, 29]: 70
Blackgrass plant response rating [2, 30]: 50
Plant response rating, Corn [3, 29]: 70
Corn plant response rating [3, 30]: 20
Plant response rating, Foxtail, Green [4, 29]: 100
Foxtail, Green plant response rating [4, 30]: 100
Plant response rating, Kochia [5, 29]: 80
Kochia plant response rating [5, 30]: 20
Plant response rating, Oat, Wild [6, 29]: 90
Oat, Wild plant response rating [6, 30]: 50
Plant response rating, Pigweed, Palmer [7, 29]: 100
Pigweed, Palmer plant response rating [7, 30]: 100
Plant response rating, Ragweed [8, 29]: 10
Ragweed plant response rating [8, 30]: 10
Plant response rating, Ryegrass, Italian [9, 29]: 90
Ryegrass, Italian plant response rating [9, 30]: 90
Plant response rating, Soybean [10, 29]: 100
Soybean plant response rating [10, 30]: 100
Plant response rating, Wheat [11, 29]: 90
Wheat plant response rating [11, 30]: 60
Plant response rating, Barnyardgrass [12, 31]: 100
Plant response rating, Barnyardgrass [12, 32]: 100
Plant response rating, Blackgrass [13, 31]: 90
Plant response rating, Blackgrass [13, 32]: 100
Plant response rating, Corn [14, 31]: 60
Plant response rating, Corn [14, 32]: 100
Plant response rating, Foxtail, Green [15, 31]: 90
Plant response rating, Foxtail, Green [15, 32]: 90
Plant response rating, Kochia [16, 31]: 20
Plant response rating, Kochia [16, 32]: 70
Plant response rating, Oat, Wild [17, 31]: 60
Plant response rating, Oat, Wild [17, 32]: 90
Plant response rating, Pigweed, Palmer [18, 31]: 70
Plant response rating, Pigweed, Palmer [18, 32]: 90
Plant response rating, Ragweed [19, 31]: 50
Plant response rating, Ragweed [19, 32]: 90
Plant response rating, Ryegrass, Italian [20, 31]: 90
Plant response rating, Ryegrass, Italian [20, 32]: 100
Plant response rating, Soybean [21, 31]: 100
Plant response rating, Soybean [21, 32]: 100
Plant response rating, Wheat [22, 31]: 50
Plant response rating, Wheat [22, 32]: 90
Plant response rating, Galium [23, 31]: 100
Plant response rating, Galium [23, 32]: 100
Plant response rating, Horseweed [24, 31]: 50
Plant response rating, Horseweed [24, 32]: 90
Plant response rating, Barnyardgrass (Flood) [25]: 50
Plant response rating, Ducksalad (Flood) [26]: 90
Plant response rating, Rice (Flood) [27]: 15
Plant response rating, Sedge, Umbrella (Flood) [28]: 100

From patent US20260262643A1, “HERBICIDAL BENZOXAZINES” (FMC CORPORATION, priority 2022, published 2026)
